melting point [°C] | SMILES
215 to 216 | CCCN(Nc1cccc(C(=N)N)c1)C(=O)Nc1ccc(-c2ccccc2S(N)(=O)=O)cc1 [Compound 1, 4′-[3-(3-amidinophenyl)-2-propylcarbazoylamino]biphenyl-2-sulfonamide]
> 300 | CCCN(Nc1cccc(C(=N)N)c1)C(=O)NNc1ccc(-c2ccccc2S(C)(=O)=O)cc1 [Compound 15, 1-(3-amidinophenyl)-4-(2′-methylsulfonylbiphenyl-4-ylamino)-2-propylsemicarbazide]

Source: US6849626B2, “Aza-amino acid derivatives (factor Xa inhibitors 15)” (Merck Patent GmbH, priority 2000, dated 2005)
